US8426345B2, “Method of drug design” (Alchemia Limited, priority 2005, dated 2013)

Molecular target: T1, Human SST5 somatostatin receptor (Homo sapiens, UniProt P35346)
T1 construct: expressed in transfected cells; host or cells: HEK-293 EBNA cells (membranes)
Assay: Filter plate radio-ligand binding assay for SST5 receptor ([125I]SST-14 displacement)
Conditions: for % SST5 radio-ligand binding displaced at conc 0.25: conc 0.25 μM; for % SST5 radio-ligand binding displaced at conc 1.0: conc 1.0 μM; for % SST5 radio-ligand binding displaced at conc 0.001: conc 0.001 μM; for % SST5 radio-ligand binding displaced at conc 0.10: conc 0.10 μM; for % SST5 radio-ligand binding displaced at conc 0.5: conc 0.5 μM; for % SST5 radio-ligand binding displaced at conc 10: conc 10 μM

[1] = compound conc 50 μM, 2P library
[2] = compound conc 250 μM, 2P library
[3] = compound conc 500 μM, 2P library

T1 sequence (P35346 whole entry): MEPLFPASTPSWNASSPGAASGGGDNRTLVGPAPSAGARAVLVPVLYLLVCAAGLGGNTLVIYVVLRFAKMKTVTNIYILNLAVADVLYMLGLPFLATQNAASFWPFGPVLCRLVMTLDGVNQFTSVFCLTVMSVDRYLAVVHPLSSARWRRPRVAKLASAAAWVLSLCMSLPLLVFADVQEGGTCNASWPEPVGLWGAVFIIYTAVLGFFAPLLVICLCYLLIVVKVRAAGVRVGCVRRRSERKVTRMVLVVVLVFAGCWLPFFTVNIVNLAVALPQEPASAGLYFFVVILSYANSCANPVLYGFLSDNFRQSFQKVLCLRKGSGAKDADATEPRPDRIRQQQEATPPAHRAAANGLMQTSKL

SMILES	% SST5 radio-ligand binding displaced at conc 0.25 (3P library)	% SST5 radio-ligand binding displaced at conc 1.0 (3P library)	% SST5 radio-ligand binding displaced at conc 50 [1]	% SST5 radio-ligand binding displaced at conc 250 [2]	% SST5 radio-ligand binding displaced at conc 500 [3]	other results
COC[C@H]1O[C@H](OCc2ccc3ccccc3c2)[C@H](NC(=O)CCN)[C@@H](OCc2nccc3ccccc23)[C@@H]1O [Compound 112]	+ (% SST5 radio-ligand binding displaced at cone (μM) 60>+>40%)	++ (% SST5 radio-ligand binding displaced at conc (μM) >60%)	–	–	–	–
COC[C@H]1O[C@H](OCc2ccc3ccccc3c2)[C@H](NC(=O)CCN)[C@@H](OC)[C@@H]1O [Compound 5]	–	–	− (% SST5 radio-ligand binding displaced at cone (μM) −<40%)	+ (% SST5 radio-ligand binding displaced at cone (μM) 60>+>40%)	++ (% SST5 radio-ligand binding displaced at conc (μM) >60%)	–
COCC1OC(OCc2ccc3ccccc3c2)C(NC(=O)CCN)C(OCc2ccc3ccccc3c2)C1O (mixture of isomers) [Compound 69]	–	++ (% SST5 radio-ligand binding displaced at conc (μM) >60%)	–	–	–	% SST5 radio-ligand binding displaced at conc 0.001 (3P library): + (% SST5 radio-ligand binding displaced at cone (μM) 60>+>40%); % SST5 radio-ligand binding displaced at conc 0.10 (3P library): ++ (% SST5 radio-ligand binding displaced at conc (μM) >60%); % SST5 radio-ligand binding displaced at conc 0.5 (3P library): ++ (% SST5 radio-ligand binding displaced at conc (μM) >60%); % SST5 radio-ligand binding displaced at conc 10 (3P library): ++ (% SST5 radio-ligand binding displaced at conc (μM) >60%)
COC[C@H]1OC(OCc2ccc(Cl)cc2)[C@H](NC(=O)CN)[C@@H](OCc2ccc(Cl)cc2)[C@@H]1O (single isomer, unassigned) [Compound 170]	− (% SST5 radio-ligand binding displaced at cone (μM) −<40%)	− (% SST5 radio-ligand binding displaced at cone (μM) −<40%)	–	–	–	–
CO[C@H]1[C@H](O)[C@@H](COCc2ccc3ccccc3c2)O[C@@H](SC)[C@@H]1NC(=O)CCCN [Compound 23]	–	–	− (% SST5 radio-ligand binding displaced at cone (μM) −<40%)	− (% SST5 radio-ligand binding displaced at cone (μM) −<40%)	+ (% SST5 radio-ligand binding displaced at cone (μM) 60>+>40%)	–
COCC1OC(OCc2ccc(Cl)cc2)C(NC(=O)CN)C(OCc2ccccc2)C1O (mixture of isomers) [Compound 160]	–	− (% SST5 radio-ligand binding displaced at cone (μM) −<40%)	–	–	–	% SST5 radio-ligand binding displaced at conc 0.001 (3P library): − (% SST5 radio-ligand binding displaced at cone (μM) −<40%); % SST5 radio-ligand binding displaced at conc 0.10 (3P library): − (% SST5 radio-ligand binding displaced at cone (μM) −<40%); % SST5 radio-ligand binding displaced at conc 0.5 (3P library): − (% SST5 radio-ligand binding displaced at cone (μM) −<40%); % SST5 radio-ligand binding displaced at conc 10 (3P library): − (% SST5 radio-ligand binding displaced at cone (μM) −<40%)
COC[C@H]1O[C@H](OCc2ccc3ccccc3c2)[C@H](NC(=O)CCCN)[C@@H](OC)[C@@H]1O [Compound 6]	–	–	− (% SST5 radio-ligand binding displaced at cone (μM) −<40%)	+ (% SST5 radio-ligand binding displaced at cone (μM) 60>+>40%)	++ (% SST5 radio-ligand binding displaced at conc (μM) >60%)	–
COC[C@H]1O[C@H](OCc2ccc3ccccc3c2)[C@H](NC(=O)CCCN)[C@@H](OCc2nc3ccccc3s2)[C@@H]1O [Compound 148]	− (% SST5 radio-ligand binding displaced at cone (μM) −<40%)	− (% SST5 radio-ligand binding displaced at cone (μM) −<40%)	–	–	–	–
COC[C@H]1O[C@H](OCc2ccc3ccccc3c2)[C@H](NC(=O)CCN)[C@H](OC)[C@@H]1O [Compound 63]	–	–	–	–	–	% SST5 radio-ligand binding displaced at conc 50 (conc 50 μM, 3P library): + (% SST5 radio-ligand binding displaced at cone (μM) 60>+>40%); % SST5 radio-ligand binding displaced at conc 250 (conc 250 μM, 3P library): ++ (% SST5 radio-ligand binding displaced at conc (μM) >60%); % SST5 radio-ligand binding displaced at conc 500 (conc 500 μM, 3P library): ++ (% SST5 radio-ligand binding displaced at conc (μM) >60%)
